Data taken from ChEMBL document CHEMBL1136474, “4-(4-alkylpiperazin-1-yl)phenyl group: a novel class of basic side chains for selective estrogen receptor modulators” (2003).

Tests used:
[1] = biological target: Estrogen receptor (Homo sapiens) (UniProt Q92731+P03372); assay: Binding affinity towards estrogen receptor (ER) using [3H]17-beta-estradiol as radioligand in human breast cancer MCF-7 cells relative to compound 1; format: cell-based; details: MCF7
Rattus norvegicus = assay: Plasma cholesterol lowering effect was determined in Sprague-Dawley rats at a dose of 1 mg/kg/day for 4 days; format: functional
[2] = biological target: T1, Estrogen receptor (Rattus norvegicus) (UniProt P06211+Q62986); details: Uterus
Description: Uterotrophic effect as uterine weight gain in rats at 1 mg/kg/day oral dose for 4 days

[3] = biological target: T1, Estrogen receptor (Rattus norvegicus); assay: Uterotrophic effect as uterine weight gain in rats at 10 mg/kg/day oral dose for 4 days; format: functional, organism-based; details: Uterus

relative binding affinity (RBA) [1]	Uterotrophic effect [2]	Increase [3] [%]	Compound	Decrease (Rattus norvegicus) [%]
22			Cc1cc(C2=CC3(CCc4cc(O)ccc43)c3ccc(O)cc32)cc(C)c1OCCN1CCCCC1 (stereo unspecified)	-9.1
			Oc1ccc2c(c1)CCC21C=C(c2ccc(OCCN3CCCCC3)cc2)c2cc(O)ccc21 (stereo unspecified)	44
122			Cc1cc(C2=CC3(CCc4cc(O)ccc43)c3ccc(O)cc32)ccc1OCCN1CCCCC1 (stereo unspecified)	4.5
181	208		CCN1CCN(c2ccc(C3=CC4(CCc5cc(O)ccc54)c4ccc(O)cc43)cc2)CC1 (stereo unspecified)	52
125	139	26.5	Oc1ccc2c(c1)CCC21C=C(c2ccc(N3CCCCC3)cc2)c2cc(O)ccc21 (stereo unspecified)	51
70			Cc1cc(OCCN2CCCCC2)ccc1C1=CC2(CCc3cc(O)ccc32)c2ccc(O)cc21 (stereo unspecified)	-12
247			Oc1ccc2c(c1)CCC21C=C(c2ccc(OCCN3CCCCC3)c(F)c2)c2cc(O)ccc21 (stereo unspecified)	16
85			CN(C)CCOc1ccc(C2=CC3(CCc4cc(O)ccc43)c3ccc(O)cc32)cc1 (stereo unspecified)	6
387	114		CCC1CCCN(c2ccc(C3=CC4(CCc5cc(O)ccc54)c4ccc(O)cc43)cc2)CC1 (stereo unspecified)	32
207			CN1CCN(c2ccc(C3=CC4(CCc5cc(O)ccc54)c4ccc(O)cc43)cc2)CC1 (stereo unspecified)	
118			Oc1ccc2c(c1)CCC21C=C(c2ccc(OCCN3CCCC3)cc2)c2cc(O)ccc21 (stereo unspecified)	17
47			Oc1ccc2c(c1)CCC21C=C(c2cccc(OCCN3CCCCC3)c2)c2cc(O)ccc21 (stereo unspecified)	
460			Oc1ccc2c(c1)CCC21C=C(c2ccc(OCCCN3CCCCC3)cc2)c2cc(O)ccc21 (stereo unspecified)	8.5
153			CCN(CC)CCOc1ccc(C2=CC3(CCc4cc(O)ccc43)c3ccc(O)cc32)cc1 (stereo unspecified)	18
103			CC(C)N1CCN(c2ccc(C3=CC4(CCc5cc(O)ccc54)c4ccc(O)cc43)cc2)CC1 (stereo unspecified)	21
42	185		CC(C)CN1CCN(c2ccc(C3=CC4(CCc5cc(O)ccc54)c4ccc(O)cc43)cc2)CC1 (stereo unspecified)	87
956			Oc1ccc2c(c1)CCC21C=C(c2ccc(CCCN3CCCCC3)cc2)c2cc(O)ccc21 (stereo unspecified)	6
186	223		CCCN1CCN(c2ccc(C3=CC4(CCc5cc(O)ccc54)c4ccc(O)cc43)cc2)CC1 (stereo unspecified)	55
428			CC1CCN(CCOc2ccc(C3=CC4(CCc5cc(O)ccc54)c4ccc(O)cc43)cc2)CC1 (stereo unspecified)	18
